# Article PMC7753357, “Population Pharmacokinetics and Model-Based Dosing Optimization of Teicoplanin in Pediatric Patients” (Frontiers in Pharmacology, 2020)
# Where “and” joins values, the source holds several entries; their conditions need not be identical. Identical values can stand only once. Like-named read-outs stand apart in the source and are kept apart here.
# How the values were obtained:
# [1] = cited from earlier work
# Text: Supplement table1.docx, table 1: TABLE S1 Pharmacokinetic Study of teicoplanin in pediatric patients. | column: Clearance (CL) , L/h; Volume of distribution (Vd) , L || Teicoplanin is a glycopeptide antibiotic with activity against methicillin-resistant Staphylococcus aureus (MRSA) ([Traina and Bonati, 1984]). […] Teicoplanin trough concentration (C min) is closely associated with clinical efficacy. […] Due to widespread systemic inflammation, patients may often have an ARC in PICU patients ([Van Der Heggen et al., 2019]), and increased volume ... || (+ 2 further places)
# [2] = Population pharmacokinetic analysis (NONMEM, one-compartment model) in hospitalized children; assay type: in vivo, human
# Text: This was a retrospective PK study performed in two hospitals in China according to the principles of the current Declaration of Helsinki and Good Clinical Practice (Hospital 1: the First Affiliated Hospital of Xi’an Jiaotong University; Hospital 2: the Affiliated Children Hospital of Xi’an Jiaotong University). The protocol was approved by the institutional review board of each study site (No.XJTU1AF2017LSK-28). All patients aged 1 month to 18 years old receiving teicoplanin (Targocid, Sanofi-Aventis) for proven or suspected MRSA infection were selected for the study over 33-month period (March 2017 and November 2019). Children were excluded if a complete teicoplanin dosing history or precise sampling time was not available. The demographic variables with potential impact on the PK of teicoplanin and details of teicoplanin administration (dose and infusion start and stop times) were extracted from medical records retrospectively by a trained research assistant. If serum creatinine (SCr) readings were unavailable around the teicoplanin dosing (±48 h), the closest available SCr reading would be imputed. Creatinine clearance (CLcr) was estimated by Cockcroft formula: CLcr = (140 – age (years)) ×weight (WT, kg) × 0.85 (if female)/0.818 × SCr (μmol/L), instead of Schwartz formula due to the lack of height data in most children ([Cockcroft and Gault, 1976]).
# (§1) Teicoplanin was administered at three loading doses of 10 mg/kg every 12 h, followed by 6–10 mg/kg/day. Types of blood samples included therapeutic drug monitoring (TDM) sample, and opportunistic sample. TDM was typically performed within 30 min preceding a dose at steady state. Samples were centrifuged for 10 min. Serum was separated and stored at −80°C until analysis. The laboratory staff were allowed to identify the opportunistic samples with the timings of blood taking documented and store them at −80°C after routine testing and pretreatment. Teicoplanin concentrations were determined with a validated high performance liquid chromatography method. The calibration curve ranged from 2.5 to 100 mg/L, and lower limit of […] (LLOQ) of this assay was 2.5 mg/L. Intra- and inter-day precision values were 3.5 and 6.2%, respectively ([Wang et al., 2015]). For the samples below the LLOQ, concentration values were recorded as LLOQ of 2.5 mg/L.
# Population pharmacokinetic (PPK) analysis was performed using NONMEM (version 7.2). A one-compartment PK model with first-order elimination (ADVAN1 TRANS2) was implemented. The concentration-time data for teicoplanin were modeled by first-order conditional estimation with interaction (FOCE-I). We evaluated inter-individual variability using an exponential error model. Residual variability was selected from additive, proportional, exponential, and combined additive and proportional error models according to acceptable standard errors, physiological plausibility of population clearance (CL) and distribution volume (Vd) estimates, improvement of the objective function value (OFV) and good visual representation of standard diagnostic plots. Demographic characteristics (age, gender, WT), renal functions (blood urea nitrogen, SCr, CLcr), biochemical data (total protein, albumin), status of disease (sepsis, endocarditis), and nephrotoxic medications received during teicoplanin therapy were investigated as potential variables on PK parameters. CLcr was calculated by the Cockcroft formula ([Cockcroft and Gault, 1976]). […]
# [3] = Nephrotoxicity and adverse events in patients; assay type: in vivo, human; settings: all after the last sample was collected
# [4] = Serum teicoplanin concentrations (TDM and opportunistic samples, HPLC); assay type: in vivo, human; settings: SD
# Protocol: as §1
# albumin = settings: ref Lukas et al., 2004; cited from earlier work
# Text: (§2) Teicoplanin is a glycopeptide antibiotic with activity against methicillin-resistant Staphylococcus aureus (MRSA) ([Traina and Bonati, 1984]). […] Teicoplanin trough concentration (C min) is closely associated with clinical efficacy. For the moderate (such as respiratory tract infections, urinary tract infections and skin and soft-tissue infections) and severe infection (such as sepsis, infective endocarditis, bone an ...
# [5] = ref Lukas et al., 2004; cited from earlier work
# Text: as §2
# [6] = ref Svetitsky et al., 2009; cited from earlier work
# Protocol: There are large differences in the optimal dosage regimens provided by the two methods (Table 3). Taken together, optimal dosage regimens based on the C min targets in our study are recommended, which are three loading doses of 10 mg/kg every 12 h, followed by a maintenance dose of 12 mg/kg/day for C min of > 10 mg/L and three loading doses of 13 mg/kg every 12 h, followed by a maintenance dose of 16 mg/kg/day for C min of > 15 mg/L. The reasons are as follows: 1) The maintenance dose based on the C min targets are higher than that based PK/PD targets. In other words, maintenance dose based on ...
# [7] = cited from earlier work; remark: listed apart in the source
# Text: Teicoplanin is a glycopeptide antibiotic with activity against methicillin-resistant Staphylococcus aureus (MRSA) ([Traina and Bonati, 1984]). […] Teicoplanin trough concentration (C min) is closely associated with clinical efficacy. For the moderate (such as respiratory tract infections, urinary tract infections and skin and soft-tissue infections) and severe infection (such as sepsis, infective endocarditis, bone an ... || There are large differences in the optimal dosage regimens provided by the two methods (Table 3). Taken together, optimal dosage regimens based on the C min targets in our study are recommended, which are three loading doses of 10 mg/kg every 12 h, followed by a maintenance dose of 12 mg/kg/day for C min of > 10 mg/L and three loading doses of 13 mg/kg every 12 h, followed by a maintenance dose of 16 mg/kg/day for C min of > 15 mg/L. The reasons are as follows: 1) The maintenance dose based on the C min targets are higher than that based PK/PD targets. In other words, maintenance dose based on ...
# [8] = most recent study in Chinese children, ref Gao et al., 2020
substance,measurement,setting,value
Teicoplanin,Mean C min,"[1]; 24 h after the first dose, ref Sanchez et al., 1999",4.8 mg/L
same,Mean C min,"[1]; 72 h after the first dose, ref Sanchez et al., 1999",5.7 mg/L
same,Mean C min,"[1]; 168 h after the first dose, ref Sanchez et al., 1999",5.9 mg/L
same,CL,"[1]; PICU Caucasians, ref Aarons et al., 1998, Lukas et al., 2004, Ramos-Martin et al., 2014, Reed et al., 1997, Sanchez et al., 1999, Terragna et al., 1988, Zhao et al., 2015",0.03 to 0.074 L/h/kg
same,Volume of distribution (Vd),"[1]; children, n=39, England, FPIA, ref Ramos-Martin (2014)",4.138 L
same,Q,"[1]; children, n=136, China, population PK, ref Gao (2020)",0.23 L/h
same,Vd in other studies,"[1]; children, ref Supplementary Table S1",0.2 to 1.02 L/kg
same,CL estimate,[1]; [8],0.013 L/h/kg
same,Vd,[1]; [8],1.85 L/kg
same,CL,"[1]; non-PICU Caucasians, ref Aarons et al., 1998, Lukas et al., 2004, Ramos-Martin et al., 2014, Reed et al., 1997, Sanchez et al., 1999, Terragna et al., 1988, Zhao et al., 2015",0.015 to 0.024 L/h/kg
same,Proportion of children failing to achieve the target C min,"[1]; previous clinical studies, ref Sanchez et al., 1999, Strenger et al., 2013, Zhao et al., 2015",48–89%
same,CL in children,"[1]; ref Aarons et al., 1998, Lukas et al., 2004, Ramos-Martin et al., 2014, Reed et al., 1997, Sanchez et al., 1999, Terragna et al., 1988, Zhao et al., 2015",0.015 to 0.074 L/h/kg
same,Overall mean C min,"[1]; ref Lukas et al., 2004",9.0 mg/L
same,Vd,"[1]; ref Ramos-Martin et al., 2014",0.2 L/kg
same,C min achieved with current maintenance doses in another study,"[1]; ref Sanchez et al., 1999",4.8 to 5.9 mg/L
same,CL,"[1]; two studies in patients admitted to the PICU, ref Reed et al., 1997, Sanchez et al., 1999",0.045 L/h/kg and 0.03 L/h/kg
same,"Vd, mean of 1,000 bootstrap replicates",[2]; bootstrap,1.77 L
same,"CL, mean of 1,000 bootstrap replicates",[2]; bootstrap success rate 96.5%,0.0718 L/h
same,"Vd, final model estimate","[2]; population PK, one-compartment, Vd=1.39×θ3(WT/16.71)",1.39 L
same,Estimate of Vd per kg,[2]; this study,0.15 L/kg
same,Typical population value of CL per kg,[2]; this study,0.014 L/h/kg
same,Children who developed nephrotoxicity during hospitalization,[3],Nine
same,"Teicoplanin concentration, mean ± standard deviation","[4]; Hospital 1, n=13, 21 samplings",9.3 ± 10.1 mg/L
same,"Teicoplanin concentration, mean ± standard deviation","[4]; Hospital 2, n=212, 304 samplings",9.1 ± 8.9 mg/L
same,"Teicoplanin concentration, mean ± standard deviation","[4]; model evaluation data, n = 66, 89 samplings",9.6 ± 5.6 mg/L
same,"Teicoplanin concentration, mean ± standard deviation","[4]; model-building data, n = 159, 236 samplings, HPLC, LLOQ 2.5 mg/L",8.6 ± 12.1 mg/L
same,Bound to albumin in plasma,albumin,> 90%
same,Hydrophilicity of the marketed drug,[5],hydrophilic
same,Adverse events compared with vancomycin,[6],lower adverse event compared with vancomycin
same,Elimination half-life compared with vancomycin,"[7]; ref Kasai et al., 2018",longer elimination half-life than vancomycin
same,Linearity of PK,"[7]; ref Rowland, 1990",linear PK
same,CL in adults,"[7]; seven out of ten of the CL reported, ref Byrne et al., 2018, Cazaubon et al., 2017, Kasai et al., Lamont et al., 2005, Soy et al., 2006, Yamada et al., 2012, Yu et al., 1995",lower than 0.01 L/h/kg
